Measurements from patent US7713994B2 (Wyeth LLC, priority 2005, dated 2010).
Like-named read-outs stand apart in the source and are kept apart here.

Legend:
[1] = target: T1, Cyclin D1/CDK6 (Homo sapiens, UniProt Q00534); assay: Cyclin D1/CDK6 Elisa; assay type: biochemical; conditions: 200 μM ATP
T1 construct: made in house; host or cells: Sf9 insect cells, recombinant baculovirus
Protocol: Cyclin D1/CDK6 was expressed in insect cells (Sf9) infected with recombinant baculovirus and partially purified using ammonium sulfate fractionation. Test compounds were diluted in 20% DMSO/20 mM HEPES, pH 7.5 and serial dilutions were prepared (5 concentrations; 0.005-50 µM). High-binding ELISA microtiter plates (Costar) were coated with the kinase substrate (glutathione-S-transferase (GST) fusion of C-terminal fragment of the retinoblastoma susceptibility gene product (Rb). Non-specific binding sites were blocked with Superblock in Tris-buffered saline (TBS; Pierce). Kinase reactions contained the test inhibitor, 200 μM ATP, 0.5 mg/ml bovine serum albumin (BSA; Sigma), and 0.1 μl cyclin D1/cdk 6. Reaction volumes were adjusted to 30 μl with kinase assay buffer (50 mM HEPES, pH 7.5, 10 mM MgCl2, 5% glycerol, 10 mM 2-mercaptoethanol), and plates were incubated at 30° C. for 1 hour. Reactions were terminated by aspiration, and non-specific sites were blocked with blocking buffer (TBS containing 0.1% Tween-20 and 5% nonfat dry milk). Phoshporylation of the substrate was detected using phospho-Rb specific antibodies (ser-795) (Cell Signalling Technologies) and anti-rabbit IgG/horseradish peroxidase conjugates (Amersham Life Science) using TMB as substrate. Colourimetric reactions were stopped with 2N sulphuric acid and the absorbance was measured at 450 nm (Molecular Devices). IC50 values were determined from inhibition plots.

[2] = tested on: BT474; assay: Cytotoxicity assay (SRB), BT474; assay type: cell-based
Outline: (§1)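 Protein staining with sulforhodamine B after cold TCA fixation served as the survival endpoint (A540, relative to untreated cells). Before staining, cells were incubated with compound at 37 °C, 7% CO2 for 3 days, or 6 days for BT474.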

[3] = tested on: LoVo; assay: Cytotoxicity assay (SRB), LoVo; assay type: cell-based; conditions: Homo sapiens, LoVo, 72 h, LoVo cells, SRB, read-out: In Vitro Cellular Activity IC50 LOVO
Outline: as §1

[4] = target: T2, cyclin B/CDK1 enzyme (Homo sapiens, UniProt P06493); assay: CDK1 ELISA kinase assay (phospho-Rb ser 795 detection); assay type: biochemical
T2 construct: purchased New England BioLabs; host or cells: Sf9 insect cells, recombinant baculovirus
Outline: (§2)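 ELISA format: plate-bound GST-Rb, 200 μM ATP, Sf9 cyclin/CDK enzyme, 1 h at 30° C; then anti-pRb Ser795 primary overnight at 4° C, HRP secondary, TMB. IC50 after no-substrate background subtraction.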

[5] = tested on: MCF-7; assay: Cytotoxicity assay (SRB), MCF-7; assay type: cell-based; conditions: Homo sapiens, MCF7, 72 h, MCF-7 cells, SRB, read-out: In Vitro Cellular Activity IC50 MCF-7
Outline: as §1

[6] = target: T3, cyclin D1/cdk 4 enzyme (Homo sapiens, UniProt P11802); assay: CDK4 ELISA kinase assay (phospho-Rb ser 795 detection); assay type: biochemical
T3 construct: made in house; host or cells: Sf9 insect cells, recombinant baculovirus
Outline: as §2

[7] = tested on: HCT-116; assay: Cytotoxicity assay (SRB), HCT-116; assay type: cell-based; conditions: Homo sapiens, HCT-116, 72 h, HCT116 cells, SRB, read-out: In Vitro Cellular Activity IC50 HCT116
Outline: as §1

[8] = target: T4, cyclin E/CDK2 enzyme (Homo sapiens, UniProt P24941); assay: CDK2 ELISA kinase assay (phospho-Rb ser 795 detection); assay type: biochemical
T4 construct: made in house; host or cells: Sf9 insect cells, recombinant baculovirus
Outline: as §2

[9] = tested on: SK-UT-1B; assay: Cytotoxicity assay (SRB), SK-UT-1B; assay type: cell-based; conditions: Homo sapiens, Skut1B; SK-UT-1B cells; read-out: In Vitro Cellular Activity IC50 SK-UT-1B
[10] = tested on: SK-Br-3; assay: Cytotoxicity assay (SRB), SK-Br-3; assay type: cell-based; conditions: Homo sapiens; SK-Br-3 cells; read-out: In Vitro Cellular Activity IC50 SK-Br-3
[11] = Homo sapiens, BT-474, 144 h, BT474 cells, SRB, 6 days; read-out: In Vitro Cellular Activity IC50 BT474
[12] = In Vitro Enzyme Assays, read-out: CDK1 IC50
[13] = In Vitro Enzyme Assays, 200 μM ATP, read-out: CDK4 IC50
[14] = In Vitro Enzyme Assays, read-out: CDK2 IC50
[15] = Homo sapiens, BT-474, 144 h, BT474 cells, 6 days, SRB; read-out: In Vitro Cellular Activity IC50 BT474
[16] = In Vitro Enzyme Assay, cyclin B/CDK1, read-out: CDK1 IC50
[17] = In Vitro Enzyme Assay, cyclin D1/cdk 4, read-out: CDK4 IC50
[18] = In Vitro Enzyme Assay, cyclin E/CDK2, read-out: CDK2 IC50

T2 sequence (P06493 whole entry): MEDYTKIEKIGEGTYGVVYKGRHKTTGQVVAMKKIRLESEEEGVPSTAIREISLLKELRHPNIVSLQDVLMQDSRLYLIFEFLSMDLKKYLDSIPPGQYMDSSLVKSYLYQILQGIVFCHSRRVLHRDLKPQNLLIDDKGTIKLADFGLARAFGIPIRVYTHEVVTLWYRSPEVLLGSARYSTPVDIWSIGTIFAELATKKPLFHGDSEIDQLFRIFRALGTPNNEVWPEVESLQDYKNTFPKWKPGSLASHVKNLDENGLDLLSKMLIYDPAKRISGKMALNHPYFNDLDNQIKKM
T2 sequence (P14635 whole entry partner): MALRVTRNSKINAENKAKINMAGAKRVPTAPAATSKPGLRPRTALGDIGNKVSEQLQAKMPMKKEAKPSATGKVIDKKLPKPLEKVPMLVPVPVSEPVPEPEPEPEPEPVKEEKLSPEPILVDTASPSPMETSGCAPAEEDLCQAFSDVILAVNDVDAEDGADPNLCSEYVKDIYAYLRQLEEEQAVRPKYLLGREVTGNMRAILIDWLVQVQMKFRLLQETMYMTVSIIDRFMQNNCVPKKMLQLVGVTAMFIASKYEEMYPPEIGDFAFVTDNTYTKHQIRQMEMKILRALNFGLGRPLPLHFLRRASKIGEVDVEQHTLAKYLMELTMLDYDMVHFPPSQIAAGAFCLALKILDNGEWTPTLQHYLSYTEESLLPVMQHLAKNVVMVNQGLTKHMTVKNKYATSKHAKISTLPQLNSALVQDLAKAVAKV
T1 sequence (Q00534 whole entry, species assumed): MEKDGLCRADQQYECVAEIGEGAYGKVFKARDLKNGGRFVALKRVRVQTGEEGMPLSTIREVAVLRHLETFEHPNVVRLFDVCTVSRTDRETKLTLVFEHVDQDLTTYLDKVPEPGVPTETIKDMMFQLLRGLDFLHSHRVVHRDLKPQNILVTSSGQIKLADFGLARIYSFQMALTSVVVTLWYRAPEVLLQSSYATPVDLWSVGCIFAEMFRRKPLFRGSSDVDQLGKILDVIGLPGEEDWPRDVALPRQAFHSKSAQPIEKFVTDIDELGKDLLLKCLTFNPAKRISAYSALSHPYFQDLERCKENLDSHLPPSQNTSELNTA
T1 sequence (P24385 whole entry partner, species assumed): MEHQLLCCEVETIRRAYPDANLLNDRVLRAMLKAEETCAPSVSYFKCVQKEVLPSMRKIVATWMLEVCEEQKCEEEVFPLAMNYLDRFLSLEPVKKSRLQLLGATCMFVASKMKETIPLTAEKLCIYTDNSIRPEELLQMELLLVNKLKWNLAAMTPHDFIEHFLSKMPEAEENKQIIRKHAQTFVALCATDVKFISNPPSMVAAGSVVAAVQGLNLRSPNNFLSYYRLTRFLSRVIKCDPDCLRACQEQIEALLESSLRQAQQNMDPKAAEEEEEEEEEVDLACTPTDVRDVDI
T3 sequence (P11802 whole entry, species assumed): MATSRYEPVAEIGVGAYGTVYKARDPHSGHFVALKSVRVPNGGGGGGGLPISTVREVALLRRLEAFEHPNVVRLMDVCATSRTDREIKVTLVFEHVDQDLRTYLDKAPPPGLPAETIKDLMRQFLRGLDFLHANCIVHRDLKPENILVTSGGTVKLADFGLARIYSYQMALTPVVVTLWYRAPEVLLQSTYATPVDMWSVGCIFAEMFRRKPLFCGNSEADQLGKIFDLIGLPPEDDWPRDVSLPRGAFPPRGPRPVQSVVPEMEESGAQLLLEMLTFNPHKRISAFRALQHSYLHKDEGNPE
T3 sequence (P24385 whole entry partner, species assumed): as the sequence (P24385 whole entry partner, species assumed) above

Row | Compound | IC50 [1] [µM] | IC50 [4, 12] [µM] | IC50 [6, 13] [µM] | IC50 [8, 14] [µM] | melting point [°C] | IC50 [4, 16] [µM] | IC50 [6, 17] [µM] | IC50 [8, 18] [µM] | IC50 [2, 11] [µM] | IC50 ([3]; three days) [µM] | IC50 ([5]; three days) [µM] | IC50 ([7]; three days) [µM] | IC50 [2, 15] [µM] | IC50 ([3]; 3 days) [µM] | IC50 ([5]; 3 days) [µM] | IC50 [9] [µM] | IC50 [10] [µM] | IC50 ([7]; 3 days) [µM]
1 | COc1ccc(CN/C=C2\C(=O)NC(=O)c3cccc(Br)c32)cc1O [Example 84, (4Z)-5-Bromo-4-{[(3-hydroxy-4-methoxybenzyl)amino]methylene}isoquinoline-1,3(2H,4H)-dione] | 0.07 | 8.1 | 0.94 | 3.1 | 204 to 206 |  |  |  | 2.1 | 4.6 | 6.7 | 3.1 |  |  |  |  |  | 
2 | O=C1NC(=O)c2ccc(I)cc2/C1=C/Nc1ccc(CN2CCCCC2)cc1 [Example 82, (4Z)-6-Iodo-4-({[4-(piperidin-1-ylmethyl)phenyl]amino}methylene)isoquinoline-1,3(2H,4H)-dione] | 0.03 | > 50 | 0.3 | 20.4 | 202 to 203 |  |  |  | 0.6 | 3.1 | 1 | 2.7 |  |  |  |  |  | 
3 | O=C1NC(=O)c2ccc(-n3cccc3)cc2/C1=C/Nc1ccc(CN2CCCCC2)cc1 [Example 74] | 0.02 | > 50 |  |  | 207 to 208 |  |  |  | 3.3 | 2.4 | 2.1 | 2.7 |  |  |  |  |  | 
4 | O=C1NC(=O)c2ccc(Cl)cc2/C1=C/Nc1ccc(CN2CCCCC2)cc1 [Example 55, (4Z)-6-Chloro-4-({[4-(piperidin-1-ylmethyl)phenyl]amino}methylene)isoquinoline-1,3(2H,4H)-dione] | 0.12 | > 50 | 2.5 | > 50 | 225 to 226 |  |  |  | 11 | 7.7 | 7 | 5.7 |  |  |  |  |  | 
5 | O=C1NC(=O)c2ccccc2/C1=C/NCc1ccc(O)c(O)c1 [Example 550, 4-[(3,4-Dihydroxy-benzylamino)-methylene]-4H-isoquinoline-1,3-dione] |  |  |  |  |  |  |  | 12.5 |  |  |  |  | 36.5 | 46.5 | 39.1 | 17.3 | 32.4 | 26.6
6 | COc1cc(CN/C=C2\C(=O)NC(=O)c3ccc(Br)cc32)cc(O)c1OC [compound 78] | 0.002 | > 50 | 0.007 | > 50 |  |  |  |  | 42 | > 50 | 32.5 | > 50 |  |  |  |  |  | 

Now from value to molecule, other results behind:

Row | IC50 [1] [µM] | IC50 [4, 12] [µM] | IC50 [6, 13] [µM] | IC50 [8, 14] [µM] | melting point [°C] | IC50 [4, 16] [µM] | IC50 [6, 17] [µM] | IC50 [8, 18] [µM] | Compound | IC50 [2, 11] [µM] | IC50 ([3]; three days) [µM] | IC50 ([5]; three days) [µM] | IC50 ([7]; three days) [µM] | IC50 [2, 15] [µM] | IC50 ([3]; 3 days) [µM] | IC50 ([5]; 3 days) [µM] | IC50 [9] [µM] | IC50 [10] [µM] | IC50 ([7]; 3 days) [µM]
7 | 0.002 | 6 | 0.01 | 0.87 |  |  |  |  | COc1ccc(CN/C=C2\C(=O)NC(=O)c3ccc(I)cc32)cc1O [Example 80, (4Z)-6-Iodo-4-{[(3-hydroxy-4-methoxybenzyl)amino]methylene}isoquinoline-1,3(2H,4H)-dione] | 1.7 | 1.5 | 3.7 | 2 |  |  |  |  |  | 
8 |  |  |  |  |  | > 50 | 17.9 | 2.5 | Nc1ccc(NC=C2C(=O)NC(=O)c3ccccc32)cc1 [Example 545, 4-[(4-Amino-phenylamino)-methylene]-4H-isoquinoline-1,3-dione] |  |  |  |  | > 50 | > 50 | > 50 | 38.9 | > 50 | 40.1
9 | 0.001 | > 50 | 0.002 | > 50 | 250 to 251 |  |  |  | COc1cc(CN/C=C2\C(=O)NC(=O)c3ccc(-c4ccccc4)cc32)cc(O)c1OC [Example 86] | 3.2 | 3.7 | 5.1 | 4.5 |  |  |  |  |  | 
10 | 0.001 | 9.7 | 0.004 |  | 252 to 253 |  |  |  | COc1ccc(CN/C=C2\C(=O)NC(=O)c3ccc(-n4cccc4)cc32)cc1O [Example 71] | 3.8 | 3 | 7.8 | 4.7 |  |  |  |  |  | 
11 | 0.1 | > 50 | 0.48 | > 50 |  |  |  |  | CN1CCN(c2ccc(N/C=C3\C(=O)NC(=O)c4ccc(I)cc43)cc2)CC1 [Example 81, (4Z)-6-Iodo-4-({[4-(4-methylpiperazin-1-yl)phenyl]amino}methylene)isoquinoline-1,3(2H,4H)-dione] | 2.8 | 5.1 |  |  |  |  |  |  |  | 
12 |  |  |  |  |  | 34.8 | 11.2 | 6.2 | O=C1NC(=O)c2ccccc2C1=CNc1ccc(O)c2ncccc12 [Example 569, 4-[(8-Hydroxy-quinolin-5-ylamino)-methylene]-4H-isoquinoline-1,3-dione] |  |  |  |  | 14.1 | > 50 | 7.2 | 2.2 | 8.9 | 7.1
